pIC50: −log10 of the molar value.
Tests used:
Assay type in all cases: cell-based
T24 bladder cancer cells = experiment: Cancer cell survival (CellTiter-Glo), T24; conditions: Homo sapiens
Outline: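 Viability by CellTiter-Glo after 72 h compound treatment of T24 bladder cancer cells (4×10^3/well, plated the night before), nine concentration levels in triplicate. Percent survival normalised to untreated cells minus medium background, from which IC50 was determined.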

[1] = tested on: Daudi lymphoma cancer cells; experiment: Cancer cell survival (CellTiter-Glo), Daudi; conditions: Homo sapiens, 72 h
Outline: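 Daudi cells (4×10^3/well) were exposed for 72 h at 37 °C to nine concentrations of compound, added as 10× solutions spanning 1 μM–10 mM (fatty acids) or 100 nM–1 mM (others). CellTiter-Glo luminescence gave % survival versus untreated, medium-blank corrected; IC50 derived.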

A-431 skin cancer cells = experiment: Cancer cell survival (CellTiter-Glo), A-431; conditions: Homo sapiens, A-431 cells, 72 h
Outline: (§1)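 Following overnight plating of 4×10^3 cells per well, triplicate wells received compound at nine concentrations (10× dosing stocks: fatty acids 1 μM-10 mM, all others 100 nM-1 mM). Incubation lasted 72 h at 37 C under 5% CO2. CellTiter-Glo luminescence then gave percent survival and IC50.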

MCF7 breast cancer cells = experiment: Cancer cell survival (CellTiter-Glo), MCF7; conditions: Homo sapiens, 72 h
Outline: as §1

A549 lung cancer cells = experiment: Cancer cell survival (CellTiter-Glo), A549; conditions: Homo sapiens, 72 h
Outline: as §1

AGS stomach cancer cells = experiment: Cancer cell survival (CellTiter-Glo), AGS; conditions: 72 h
Outline: as §1

[2] = tested on: HCT 116 colorectal cancer cells; experiment: Cancer cell survival (CellTiter-Glo), HCT 116; conditions: Homo sapiens, HCT 116 cells, 72 h
Outline: as §1

[3] = tested on: PC-3 prostate cancer cells; experiment: Cancer cell survival (CellTiter-Glo), PC-3; conditions: Homo sapiens, PC-3 cells, 72 h, read-out: Cell survival at given concentration
Outline: as §1

[4] = 101 nM, read-out: Cell survival at given concentration
[5] = 318 nM, read-out: Cell survival at given concentration
[6] = 1 μM, read-out: Cell survival at given concentration
[7] = 3 μM, read-out: Cell survival at given concentration
[8] = 10 μM, read-out: Cell survival at given concentration
[9] = 32 μM, read-out: Cell survival at given concentration
[10] = 100 μM, read-out: Cell survival at given concentration
[11] = 316 μM, read-out: Cell survival at given concentration
[12] = 1000 μM, read-out: Cell survival at given concentration

O=c1c(O)c(-c2cc(O)c(O)c(O)c2)oc2cc(O)cc(O)c12 [myricetin]
viability at 0.101 µM (T24 bladder cancer cells; T-24, 101 nM, 72 h, read-out: Cell survival at given concentration): 101%
viability at 0.318 µM (T24 bladder cancer cells; T-24, 318 nM, 72 h, read-out: Cell survival at given concentration): 98%
viability at 1 µM (T24 bladder cancer cells; T-24, 1 μM, 72 h, read-out: Cell survival at given concentration): 106%
viability at 3 µM (T24 bladder cancer cells; T-24, 3 μM, 72 h, read-out: Cell survival at given concentration): 102%
viability at 10 µM (T24 bladder cancer cells; T-24, 10 μM, 72 h, read-out: Cell survival at given concentration): 96%
viability at 32 µM (T24 bladder cancer cells; T-24, 32 μM, 72 h, read-out: Cell survival at given concentration): 9%
viability at 100 µM (T24 bladder cancer cells; T-24, 100 μM, 72 h, read-out: Cell survival at given concentration): 0%
viability at 316 µM (T24 bladder cancer cells; T-24, 316 μM, 72 h, read-out: Cell survival at given concentration): 0%
viability at 1000 µM (T24 bladder cancer cells; T-24, 1000 μM, 72 h, read-out: Cell survival at given concentration): 0%
pIC50 (T24 bladder cancer cells; T-24, 72 h, Table 3.1, read-out: 1050): 4.72
viability at 0.101 µM [1, 4]: 104%
viability at 0.318 µM [1, 5]: 103%
viability at 1 µM [1, 6]: 104%
viability at 3 µM [1, 7]: 104%
viability at 10 µM [1, 8]: 105%
viability at 32 µM [1, 9]: 25%
viability at 100 µM [1, 10]: 0%
viability at 316 µM [1, 11]: 0%
viability at 1000 µM [1, 12]: 0%
pIC50 ([1]; Table 4.1): 4.55
viability at 0.101 µM (A-431 skin cancer cells; [4]): 102%
viability at 0.318 µM (A-431 skin cancer cells; [5]): 100%
viability at 1 µM (A-431 skin cancer cells; [6]): 102%
viability at 3 µM (A-431 skin cancer cells; [7]): 102%
viability at 10 µM (A-431 skin cancer cells; [8]): 100%
viability at 32 µM (A-431 skin cancer cells; [9]): 96%
viability at 100 µM (A-431 skin cancer cells; [10]): 87%
viability at 316 µM (A-431 skin cancer cells; [11]): 87%
viability at 1000 µM (A-431 skin cancer cells; [12]): 78%
pIC50 (A-431 skin cancer cells; Table 9.1): < 3.00
viability at 0.101 µM (MCF7 breast cancer cells; [4]): 105%
viability at 0.318 µM (MCF7 breast cancer cells; [5]): 95%
viability at 1 µM (MCF7 breast cancer cells; [6]): 104%
viability at 3 µM (MCF7 breast cancer cells; [7]): 100%
viability at 10 µM (MCF7 breast cancer cells; [8]): 99%
viability at 32 µM (MCF7 breast cancer cells; [9]): 103%
viability at 100 µM (MCF7 breast cancer cells; [10]): 94%
viability at 316 µM (MCF7 breast cancer cells; [11]): 99%
viability at 1000 µM (MCF7 breast cancer cells; [12]): 87%
pIC50 (MCF7 breast cancer cells; Table 5.1): < 3.00
viability at 0.101 µM (A549 lung cancer cells; [4]): 100%
viability at 0.318 µM (A549 lung cancer cells; [5]): 100%
viability at 1 µM (A549 lung cancer cells; [6]): 99%
viability at 3 µM (A549 lung cancer cells; [7]): 104%
viability at 10 µM (A549 lung cancer cells; [8]): 101%
viability at 32 µM (A549 lung cancer cells; [9]): 99%
viability at 100 µM (A549 lung cancer cells; [10]): 99%
viability at 316 µM (A549 lung cancer cells; [11]): 98%
viability at 1000 µM (A549 lung cancer cells; [12]): 79%
pIC50 (A549 lung cancer cells; Table 7.1): < 3.00
viability at 0.101 µM (AGS stomach cancer cells; [4]): 107%
viability at 0.318 µM (AGS stomach cancer cells; [5]): 103%
viability at 1 µM (AGS stomach cancer cells; 1 μM, Table 10.1, read-out: Cell survival at given concentration): 110%
viability at 3 µM (AGS stomach cancer cells; 3 μM, Table 10.1, read-out: Cell survival at given concentration): 103%
viability at 10 µM (AGS stomach cancer cells; 10 μM, Table 10.1, read-out: Cell survival at given concentration): 109%
viability at 32 µM (AGS stomach cancer cells; 32 μM, Table 10.1, read-out: Cell survival at given concentration): 111%
viability at 100 µM (AGS stomach cancer cells; 100 μM, Table 10.1, read-out: Cell survival at given concentration): 108%
viability at 316 µM (AGS stomach cancer cells; [11]): 107%
viability at 1000 µM (AGS stomach cancer cells; [12]): 81%
viability at 0.101 µM [2, 4]: 101%
viability at 0.318 µM [2, 5]: 104%
viability at 1 µM [2, 6]: 107%
viability at 3 µM [2, 7]: 105%
viability at 10 µM [2, 8]: 102%
viability at 32 µM [2, 9]: 31%
viability at 100 µM [2, 10]: 0%
viability at 316 µM [2, 11]: 0%
viability at 1000 µM [2, 12]: 0%
pIC50 ([2]; Table 6.1): 4.58
viability at 0.101 µM ([3]; 101 nM): 103%
viability at 0.318 µM ([3]; 318 nM): 99%
viability at 1 µM ([3]; 1 μM): 103%
viability at 3 µM ([3]; 3 μM): 100%
viability at 10 µM ([3]; 10 μM): 105%
viability at 32 µM ([3]; 32 μM): 101%
viability at 100 µM ([3]; 100 μM): 102%
viability at 316 µM ([3]; 316 μM): 101%
viability at 1000 µM ([3]; 1000 μM): 88%
